From patent publication US9603861B2, “Compositions and methods for treating hyperproliferative epidermal diseases” (DERMIPSOR LTD., priority 2005, dated 2017) come the findings set out here.

Data set [1] deals with HaCat cells. Nature of the data set: Proliferation assay (MTT method), HaCat cells. Type of data set: cell-based, human. The procedure: The antiproliferative activity of calcipotriol and nicotinamide was tested in two model systems: the first a spontaneously immortalized human keratinocyte, which is referred to herein as “HaCat cells” or “HaCat keratinocytes”, and serves as a model for highly proliferative epidermis, such as, but not limited to, psoriatic epidermis (Okenfels et al, 1998), and as a model for effects of external modulators of epidermal differentiation (Paramio, et al., 1997). The second system includes rapidly proliferating human keratinocytes, which are referred to herein as “cultured human epidermal keratinocytes”, and serves as a model for detecting antiproliferative agents in the treatment of psoriasis (Nikoloff, et al., 1988). These models have been used, according to the present invention, to test the antiproliferative efficacy of agents described herein. […] The viability and/or proliferation of HaCat cells and Cultured Human Epidermal Keratinocytes, following treatment with various concentrations of calcipotriol, nicotinamide (NA) or a combination thereof was determined by the MTT assay, according manufacturer in 96-well microtiter plates.

Data set [2] has as its system HaCat cells. Nature of the data set: Apoptosis and necrosis by fluorescence microscopy. It is filed as cell-based, human. The procedure:
Estimation of apoptosis and necrosis was analyzed using fluorescence microscopy as previously described (Harel et al, 2002). Briefly, HaCat cells were cultured on glass slides and exposed to various concentration of NA (5, 10, 20 and 50 mM). After 72 h the cells were stained with the DNA binding dyes Hoechst 33342 and propidium iodide. Viable cells were identified by intact nuclei and their blue fluorescence, necrotic cells by intact nuclei and red fluorescence, and cells in early or late phase of apoptosis, by fragmented nuclei and blue or red fluorescence. At least one thousand cells were counted for each treatment.

Data set [3] relates to HaCat cells. Nature of the data set: Growth curve and mitotic activity. It is filed as cell-based, human. To be noted: 10 mM NA. The procedure:
Growth curve and mitotic activity: 2×10^4 cells per ml were seeded in 24-well tissue culture plates and incubated without or with 10 mM NA. The cells were detached by trypsinization at different times (48 h-168 h) following passage and counted using a haemocytometer in tetra-aliquots. For estimation of mitotic activity the cells were cultured on glass coverslips into Petri dishes. After 72 h incubation with or without 10 mM NA the cells were fixed with methanol, stained with Giemsa stain and analyzed by light microscopy. Frequency of mitotic cells at different stages of mitotic cycle (pro-, meta-, ana- and telophases) was calculated. At least 1000 cells were counted for each experiment.

For data set [4], the system named is benign and malignant epidermal cells. Nature of the data set: Differentiation markers in benign and malignant epidermal cells. Type of data set: cell-based. The procedure:
(§1) Certain in vitro assays based on keratinocyte cell culture were performed to test NA and the combination of NA and calcipotriol. The experimental design has been described in PCT Patent Publication WO 01/51051, of some of the inventors of the present application.
(§2) Cornified Envelope Formation: Late differentiation processes in HaCat cells treated with NA and or calcipotriol were measured by determining the cornified cell envelope formation, according to the procedures described in Sun and Green (1976) and PCT publication WO 01/51051.
(§3) Effects of NA and or calcipotriol on early (keratin k10 expression) and late (involucrin expression) differentiation processes in HaCat cells were estimated by indirect immunofluorescence.

For data set [5], the system named is human primary keratinocytes. Nature of the data set: Proliferation assay (MTT method), human primary keratinocytes. It is filed as cell-based. To be noted: NA in pharmacological concentrations, dose dependent. The procedure: The antiproliferative activity of calcipotriol and nicotinamide was tested in two model systems: the first a spontaneously immortalized human keratinocyte, which is referred to herein as “HaCat cells” or “HaCat keratinocytes”, and serves as a model for highly proliferative epidermis, such as, but not limited to, psoriatic epidermis (Okenfels et al, 1998), and as a model for effects of external modulators of epidermal differentiation (Paramio, et al., 1997). The second system includes rapidly proliferating human keratinocytes, which are referred to herein as “cultured human epidermal keratinocytes”, and serves as a model for detecting antiproliferative agents in the treatment of psoriasis (Nikoloff, et al., 1988). Human Epidermal Keratinocytes (passages 3-6), obtained from normal face-lift surgery, were cultivated in serum-free KGM®-2 BulletKit® (Clonetics, USA) medium with low calcium for accelerated proliferation of the keratinocytes. The viability and/or proliferation of HaCat cells and Cultured Human Epidermal Keratinocytes, following treatment with various concentrations of calcipotriol, nicotinamide (NA) or a combination thereof was determined by the MTT assay, according manufacturer in 96-well microtiter plates.
Background: Tetrazolium dyes change colour on reduction, which living cells bring about.

Another data set relates to HaCat keratinocytes. Nature of the data set: Long-term NA treatment of HaCat keratinocytes, oxidative stress. It is filed as cell-based, human. The settings on record: long-term treatment with NA. The text has this: Other long-term cultures of cells with other agents are similarly obtained by cultivating HaCat cells, for a prolonged period of time, in medium supplemented with combinations of NA, vitamin D and derivatives thereof and vitamin A.

A further data set deals with A431 cells. Nature of the data set: Apoptosis in A431 cells. It is filed as cell-based.
The next data set concerns KM12. Nature of the data set: Proliferation assay, KM12 cells. It is filed as cell-based. The settings on record: NA in pharmacological concentrations, dose dependent.
In another data set the test system is keratin 10 (K10). Nature of the data set: Indirect immunofluorescence, keratin 10 expression. It is filed as cell-based, human. The settings on record: 72 hours. The procedure: as §3
In brief, 2×10^4 cells/ml were seeded on glass coverslips into Petri dishes with 0, 5, 10 and 20 mM NA or calcipotriol. After 72 hours of incubation, cells on the glass coverslips were washed with PBS, fixed by ice-cold mixture of methanol:acetone (1:1) and incubated at −20° C. for 10 minutes. Fixed cells were washed in PBS and incubated with blocking buffer (1% BSA in PBS) for 10 minutes, to minimize non-specific absorption of the primary antibodies to the coverslips. Thereafter, the cells were incubated for 1 hour with primary monoclonal antibodies (Keratin 10 expression was detected by antihuman mouse monoclonal antibody, at 1/50 final dilution; Involucrin expression was detected by antihuman involucrin mouse monoclonal antibody at 1/100 final dilution), at 37° C. hour in a humidified chamber. Exhaustive, PBS-washed cells were incubated with fluorophor conjugated goat anti-mouse IgG, at 1/50 final dilution, for 30 minutes at room temperature. The slides were viewed under a Zeiss microscope (Axioskop-2) equipped with epifluorescence optics and the appropriate filters to avoid cross-channel contamination. […] On each slide, at least 500-1000 cells were scored.

A further data set deals with PARP. Nature of the data set: Immunoblot analysis of PARP expression. Type of data set: cell-based, human. Here is the method: Immunoblot analysis of PARP expression: immune complexes were detected by incubation with secondary anti-mouse alkaline phosphatase conjugated antibody AP124A (dilution 1:5000) followed by developing with BCIP/NBT color substrate.
Background: In western blotting, separated proteins are transferred to a membrane and probed.

A further data set concerns A431. Nature of the data set: Proliferation assay, A431 cells. Type of data set: cell-based. The settings on record: NA in pharmacological concentrations, dose dependent. Here is the method:
as §1

Data set [6] relates to HaCat cells. Nature of the data set: Cell cycle parameters by flow cytometry. It is filed as cell-based, human. To be noted: NA 72 h, dose dependent. Here is the method: Determination of apoptosis and cell cycle parameters was performed by flow cytometry. Cells were seeded in 25 cm2 tissue culture flasks and cultured for 48 h, and then they were exposed to 5, 10 and 20 mM NA for 72 h. Flow cytometry was performed on nuclei prepared with a detergent-trypsin method and stained with propidium iodide (Vindelov et al, 1983).
For orientation: In flow cytometry, cells or beads pass a laser one at a time.

The test system of a further data set is involucrin. Nature of the data set: Indirect immunofluorescence, involucrin expression. It is filed as cell-based, human. The procedure:
as §3
In brief, 2×10^4 cells/ml were seeded on glass coverslips into Petri dishes with 0, 5, 10 and 20 mM NA or calcipotriol. After 72 hours of incubation, cells on the glass coverslips were washed with PBS, fixed by ice-cold mixture of methanol:acetone (1:1) and incubated at −20° C. for 10 minutes. Fixed cells were washed in PBS and incubated with blocking buffer (1% BSA in PBS) for 10 minutes, to minimize non-specific absorption of the primary antibodies to the coverslips. Thereafter, the cells were incubated for 1 hour with primary monoclonal antibodies (Keratin 10 expression was detected by antihuman mouse monoclonal antibody, at 1/50 final dilution; Involucrin expression was detected by antihuman involucrin mouse monoclonal antibody at 1/100 final dilution), at 37° C. hour in a humidified chamber. Exhaustive, PBS-washed cells were incubated with fluorophor conjugated goat anti-mouse IgG, at 1/50 final dilution, for 30 minutes at room temperature. The slides were viewed under a Zeiss microscope (Axioskop-2) equipped with epifluorescence optics and the appropriate filters to avoid cross-channel contamination. The level of keratin 10 and involucrin expression was estimated by counting the positive cells relative to the total cell number. On each slide, at least 500-1000 cells were scored.

Data set [7] concerns HaCat cells. Nature of the data set: Cornified envelope formation. Type of data set: cell-based, human. Here is the method: as §2
Data set [8] can be described thus: Skin permeation, Franz diffusion cell. It is filed as in vitro ADME, porcine. The settings on record: formulations CP and CPNA, 12 hours; QL 1.3 ng/mL. Here is the method: Three formulations were prepared. The first comprised Nicotinamide (NA, 2.1 mg/g), the second Calcipotriol (CP, 50 μg/g) and the third, a combination of Calcipotriol (50 μg/g) and Nicotinamide (2.1 mg/g)(CPNA).
The Franz cell assembly and porcine ear skin are used for measuring permeation of drugs through the skin in vitro from various systems and dosage forms (Dick et al. 1992; Simon, et al. 2000; Touitou et al. 1998; Chien 1992). The experiments were carried out in vitro using the Franz diffusion cell assembly and full-thickness skin from porcine ear. The diffusion cells are made from an inert material and the assembly allows for good receiver-fluid mixture and temperature control.
Porcine ear skin was excised from the outer part of the ear and separated from the underlying cartilage. The skin was stored frozen at −20° C. until use, always less than one week. […] A quantity of 100 mg test formulation was placed on 1.77 cm^2 skin in the donor compartment. […]
The experiments were run non-occluded for 12 hours. […] The samples were analyzed for Nicotinamide and Calcipotriol concentrations by HPLC as further described. […]
HPLC assays: The HPLC assays of nicotinamide and calcipotriol were carried as follows: Nicotinamide was analyzed in a Waters Alliance 2795 LC and Quattro Micro™ HPL chromotograph LC-MS system with Hypersil BDS C18, 3 μm, 150×2.1 mm (CN 28103-152130, batch #4796) column. […]

Structures are written as SMILES.

On to `NC(=O)c1cccnc1` [NA, Nicotinamide], for which the “rate of HaCat cell proliferation” value in the data set on HaCat cells [1] (0.5-5 mM NA, 72 h) is recorded as “did not change the rate of HaCat cell proliferation”. Besides, the “Proliferation of HaCat keratinocytes” value in the data set on HaCat cells [1] (NA in pharmacological concentrations, dose dependent) is “significantly inhibited”. In addition, the “apoptotic death in HaCat cells (summary statement)” value in the data set with HaCat cells [2] is on record as “does not induce apoptotic death”. The apoptogenic effect entry with HaCat cells [2] (20 mM and 50 mM NA, 72 h) was “significant apoptogenic effect”. Also, in the data set with HaCat cells [2] (50 mM NA), the “cells in stage of early apoptosis” value is recorded as 9% and the “effected cells with signs of late apoptosis” value is “about 91%”. The necrotic cell death result in the data set with HaCat cells [2] (all tested NA concentrations (5-50 mM)) was “no tested concentration of NA induced necrotic cell death”. In addition, in the data set on HaCat cells [3] (48-168 hours), the growth curve result was “growth retardation”. Besides, the “percentage of mitotic cells, times lower compared to untreated” value with HaCat cells [3] (72 h) was “about 2.5 times”. Moreover, in [4], the “differentiation processes: K10, Involucrin, enveloped cornified cell formation markers” value is given as “promotes the differentiation processes”. In data set [5], the “Proliferation of human primary keratinocytes” value was “significantly inhibited”. Further, in the data set on HaCat keratinocytes, the “anti-oxidative enzymes (glutathione peroxidase and catalase)” value was “high levels of anti-oxidative enzymes”; the “protection to oxidative stress (hydrogen peroxide)” value was “high level of protection to oxidative stress”. The “apoptotic death in A431 cells” value in the data set on A431 cells is on record as “does not induce apoptotic death”. Further, the “Proliferation of KM12” value in the data set with KM12 was “significantly inhibited”. Further, in the data set on keratin 10 (K10) (5 mM to 10 mM NA), the “K10 expression compared to control cells” value is listed as “no effect”. For the same molecule, the “stimulation of K10 expression” value with keratin 10 (K10) (20 mM NA) came to 3 fold. The “PARP expression (Western blot)” value with PARP (10 mM or 20 mM NA) was “express a basal level of undegraded 116 kDa PARP full protein”. In the data set on PARP (50 mM NA, 85 kDa cleavage fragment appears), the “PARP expression (Western blot)” value is listed as “induced degradation of PARP”. Besides, in the data set on A431, the “Proliferation of A431” value is listed as “significantly inhibited”. For the same molecule, the “frequency of cells in G0-G1, S and G2-M phases” value in the data set on HaCat cells [6] is “reduction of the cell number in S and G2-M-phases”. Besides, the “increase of involucrin expression vs control” value in the data set with involucrin (5 mM NA) is on record as “about 2 times”. In addition, in the data set on involucrin (5 mM NA, control 6.0±1.22%), the “level of involucrin expression (positive cells)” value worked out at 11.2±1.68%. Moreover, in the data set with involucrin (10 mM NA), the “frequency of involucrin positive cells” value came to 11.0±1.13%. Moreover, the “frequency of involucrin positive cells” value in the data set on involucrin (20 mM NA) amounted to 15.1±3.93%. Besides, in the data set with HaCat cells [7] (5 mM or 10 mM NA), the “frequency of basal and cornified envelope cells” value is recorded as “no statistically significant effect”. The “cornified envelope cell formation” value with HaCat cells [7] (15 mM NA) is recorded as “increased”. The “level of basal cells” value with HaCat cells [7] (15 mM NA, untreated 58.6±10.24%) worked out at 25.6±5.76%. Besides, the “frequency of basal cells, of total cell population” value in the data set on HaCat cells [7] (20 mM NA) is reported as “about 15%”. Moreover, the “frequency of envelope cornified cells, of total cell population” value in the data set with HaCat cells [7] (20 mM NA, untreated 4.4±2.78%) was “about 15%”.

Consider `C=C1/C(=C\C=C2/CCC[C@]3(C)[C@@H]([C@H](C)/C=C/[C@@H](O)C4CC4)CC[C@@H]23)C[C@@H](O)C[C@@H]1O` [calcipotriol, Calcipotriol], for which, in [8], the “calcipotriol in the receiver compartment” value was “No calcipotriol was detected”.
